# Source: US8003800B2, “Thiophene derivatives as S1P1/EDG1 receptor agonists” (Actelion Pharmaceuticals Ltd., priority 2006, dated 2011)
# Target: recombinant human S1P1 receptor (Homo sapiens, UniProt P21453)
# Assay: GTPγS assay to determine EC50 values
# Format: biochemical
# Conditions: 35S-GTPγS binding, membrane preparations of CHO cells expressing recombinant human S1P1 receptor, pH 7.4
# Method: GTPγS binding assays are performed in 96 well microtiter plates (Nunc, 442587) in a final volume of 200 μl, using membrane preparations of CHO cells expressing recombinant human S1P1 receptor. Assay conditions are 20 mM Hepes (Fluka, 54461), 100 mM NaCl (Fluka, 71378), 5 mM MgCl2 (Fluka, 63064), 0.1% BSA (Calbiochem, 126609), 1 μM GDP (Sigma, G-7127), 2.5% DMSO (Fluka, 41644), […] ^35S-GTPγS (Amersham Biosciences, SJ1320). The pH is 7.4. Test compounds are dissolved and diluted in 100% DMSO and pre-incubated at room temperature for 30 min in 150 μl of the above assay buffer, in the absence of ^35S-GTPγS. After addition of 50 μl of ^35S-GTPγS, the assay is incubated for 1 h at rt. The assay is terminated by transfer of the reaction mixture to a Multiscreen plate (Millipore, MAHFC1H60) using a cell harvester from Packard Biosciences, and the plates are washed with ice-cold 10 mM Na2HPO4/NaH2PO4 (70%/30%), dried, sealed at the bottom and, after addition of 25 μl MicroScint20 (Packard Biosciences, order #6013621), sealed on the top. Membrane-bound ^35S-GTPγS is measured with a TopCount from Packard Biosciences.
# EC50 is the concentration of agonist inducing 50% of the maximal specific ^35S-GTPγS binding. Specific binding is determined by subtracting non-specific binding from maximal binding. Maximal binding is the amount of cpm bound to the Multiscreen plate in the presence of 10 μM of S1P. Non-specific binding is the amount of binding in the absence of an agonist in the assay.
# The EC50 values were determined according to the method described above: […]
# recombinant human S1P1 receptor, sequence (P21453 whole entry): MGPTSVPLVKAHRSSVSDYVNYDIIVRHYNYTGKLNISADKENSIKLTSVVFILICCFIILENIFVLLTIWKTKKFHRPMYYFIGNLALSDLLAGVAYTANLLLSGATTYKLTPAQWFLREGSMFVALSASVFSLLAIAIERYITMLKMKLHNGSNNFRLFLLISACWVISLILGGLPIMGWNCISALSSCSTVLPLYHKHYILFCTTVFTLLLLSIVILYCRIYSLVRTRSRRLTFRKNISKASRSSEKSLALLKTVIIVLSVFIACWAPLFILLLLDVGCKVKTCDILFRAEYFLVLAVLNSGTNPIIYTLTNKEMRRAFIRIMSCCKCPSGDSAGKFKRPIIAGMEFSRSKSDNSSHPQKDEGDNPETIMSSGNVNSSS
row,Compound,EC50 [nM]
1,"Cc1cc(CCC(=O)c2scc(CC(C)C)c2CC(C)C)cc(C)c1O [Example 7, 1-(3,4-diisobutyl-thiophen-2-yl)-3-(4-hydroxy-3,5-dimethyl-phenyl)-propan-1-one]",8.4
2,"CCCc1c(CC(C)C)csc1C(=O)CCc1cc(C)c(OC[C@@H](O)CO)c(C)c1 [Example 8, 3-[4-((S)-2,3-dihydroxy-propoxy)-3,5-dimethyl-phenyl]-1-(4-isobutyl-3-propyl-thiophen-2-yl)-propan-1-one]",7.5
3,"CCc1cc(-c2noc(-c3cc(CC(C)C)c(C)s3)n2)cc(C)c1CCC(=O)NCCO [Example 58, 3-{2-ethyl-4-[5-(4-isobutyl-5-methyl-thiophen-2-yl)-[1,2,4]oxadiazol-3-yl]-6-methyl-phenyl}-N-(2-hydroxy-ethyl)-propionamide]",7.5

# More lines, now with the values ahead:
row,EC50 [nM],Compound
1,5.5,"CCc1cc(-c2noc(-c3cc(CC(C)C)c(C)s3)n2)cc(C)c1OCC(O)CNC(=O)CO (racemic) [Example 16, rac-N-(3-{2-Ethyl-4-[5-(4-isobutyl-5-methyl-thiophen-2-yl)-[1,2,4]oxadiazol-3-yl]-6-methyl-phenoxy}-2-hydroxy-propyl)-2-hydroxy-acetamide]"
2,2.1,"Cc1cc(-c2noc(-c3sc(C)c(CC(C)C)c3C)n2)cc(C)c1OCC(O)CNC(=O)CO (racemic) [Example 50, rac-2-Hydroxy-N-(2-hydroxy-3-{4-[5-(4-isobutyl-3,5-dimethyl-thiophen-2-yl)-[1,2,4]oxadiazol-3-yl]-2,6-dimethyl-phenoxy}-propyl)acetamide]"
3,5.8,"CCCc1c(CC(C)C)csc1C(=O)/C=C/c1cc(C)c(O)c(C)c1 [Example 3, 3-(4-Hydroxy-3,5-dimethyl-phenyl)-1-(4-isobutyl-3-propyl-thiophen-2-yl)-propenone]"
4,1.1,"Cc1cc(-c2noc(-c3scc(CC(C)C)c3C)n2)cc(C)c1OC[C@@H](O)CNC(=O)CO [Example 70, (S)-2-Hydroxy-N-(2-hydroxy-3-{4-[5-(4-isobutyl-3-methyl-thiophen-2-yl)-[1,2,4]oxa-diazol-3-yl]-2,6-dimethyl-phenoxy}-propyl)-acetamide]"
5,0.4,"CCc1cc(-c2nnc(-c3sc(C)c(CC(C)C)c3C)o2)cc(C)c1OC[C@@H](O)CNC(=O)CO [Example 109, (S)—N-(3-{2-Ethyl-4-[5-(4-isobutyl-3,5-dimethyl-thiophen-2-yl)-[1,3,4]oxadiazol-2-yl]-6-methyl-phenoxy}-2-hydroxy-propyl)-2-hydroxy-acetamide]"

# Test system: circulating lymphocytes
# Assay: Assessment of in vivo efficacy: circulating lymphocytes after oral administration
# Set-up: unit not given here
# Conditions: 6 h after oral administration of 10 mg/kg to normotensive male Wistar rats, as compared to vehicle-treated group; mean±SEM
# Method: The efficacy of the compounds of Formula (I) is assessed by measuring the circulating lymphocytes after oral administration of 3 to 30 mg/kg of a compound of Formula (I) to normotensive male Wistar rats. The animals are housed in climate-controlled conditions with a 12 h-light/dark cycle, and have free access to normal rat chow and drinking water. Blood is collected before and 3, 6 and 24 h after drug administration. Full blood is subjected to hematology using Advia Hematology system (Bayer Diagnostics, Züurich, Switzerland).
# All data are presented as mean±SEM. Statistical analyses are performed by analysis of variance (ANOVA) using Statistica (StatSoft) and the Student-Newman-Keuls procedure for multiple comparisons. The null hypothesis is rejected when p<0.05.
row,Compound,Lymphocyte counts
1,"Cc1cc(-c2noc(-c3scc(CC(C)C)c3C)n2)cc(C)c1OCC(O)CNC(=O)CO (racemic) [Example 23, rac-2-Hydroxy-N-(2-hydroxy-3-{4-[5-(4-isobutyl-3-methyl-thiophen-2-yl)-[1,2,4]oxadiazol-3-yl]-2,6-dimethyl-phenoxy}-propyl)acetamide]",−73 ± 2
2,"Cc1cc(-c2noc(-c3sc(C)c(CC(C)C)c3C)n2)cc(C)c1OCC(O)CNC(=O)CO (racemic) [Example 50, rac-2-Hydroxy-N-(2-hydroxy-3-{4-[5-(4-isobutyl-3,5-dimethyl-thiophen-2-yl)-[1,2,4]oxadiazol-3-yl]-2,6-dimethyl-phenoxy}-propyl)acetamide]",−93 ± 1
3,"COc1cc(OCC(O)CNC(=O)CO)ccc1-c1noc(-c2cc(CC(C)C)c(C)s2)n1 (stereo not drawn) [Example 46, 2-hydroxy-N-(2-hydroxy-3-{4-[5-(4-isobutyl-5-methyl-thiophen-2-yl)-[1,2,4]oxadiazol-3-yl]-3-methoxy-phenoxy}-propyl)-acetamide]",−77 ± 3
4,"CCc1cc(-c2nnc(-c3cc(CC(C)C)c(C)s3)o2)cc(C)c1OC[C@@H](O)CNC(=O)CO [Example 64, N—((S)-3-{2-ethyl-4-[5-(4-isobutyl-5-methyl-thiophen-2-yl)-[1,3,4]oxadiazol-2-yl]-6-methyl-phenoxy}-2-hydroxy-propyl)-2-hydroxy-acetamide]",−66 ± 1
